Measurements taken from US20190076384A1, “METHODS FOR TREATING UREA CYCLE DISORDERS” (priority 2017, published 2019).
Read-outs that look alike come from different tables or passages of the source.

Assays:
CYP3A4/5 = assay type: in vitro ADME, human; conditions: 5 mM
Cytochrome P450 3A4 = Cytochrome P450 3A4 (Homo sapiens, UniProt P08684); test: clinical
Protocol: Methodology: This was a Phase 1, open-label, monosequence crossover, drug-drug interaction study of RAVICTI® and midazolam in healthy male and female subjects.
Single doses of midazolam HCl syrup (2 mg/mL) were administered in the morning following an approximate 10-hour fast on Days 1 and 5 (coadministered with RAVICTI® on Day 5) just prior to administration of breakfast (˜5 minutes before breakfast).
Pharmacokinetics: Blood samples for the analysis of plasma midazolam and its metabolite (1′-OH-midazolam, free+conjugates) levels were collected via an indwelling catheter and/or via direct venipuncture. Blood samples were collected on Days 1 and 5 at the following time points: predose, 0.5, 1, 2, 3, 4, 6, 8, 10, 12, 16, and 24 hours postdose. In addition, five plasma PK samples for GPB analysis were collected on Day 4 at the following time points: at 1 minute, 30 minutes, and 1 hour following the first morning dose of RAVICTI; at 30 minutes and 1 hour post second dose of RAVICTI.
Pharmacokinetics: The possible drug-drug interaction was examined between coadministration of RAVICTI and midazolam (test) and midazolam administered alone (reference). An analysis of variance (ANOVA), with treatment as a fixed effect and subject as a random effect, was performed. Data for Cmax, AUC0-t, and AUC0-∞, as appropriate, were natural log (ln)-transformed prior to analysis. The 90% confidence intervals (CIs) of the test group means relative to the reference group means were obtained by taking the antilog of the corresponding 90% CIs for the differences between the means on the log scale, i.e., ratio of geometric least-squares (LS) means.

CYP2D6 = CYP2D6 (Homo sapiens, UniProt P10635); conditions: Bufuralol 1′-hydroxylase, 5 mM
CYP2D6, sequence (P10635 whole entry): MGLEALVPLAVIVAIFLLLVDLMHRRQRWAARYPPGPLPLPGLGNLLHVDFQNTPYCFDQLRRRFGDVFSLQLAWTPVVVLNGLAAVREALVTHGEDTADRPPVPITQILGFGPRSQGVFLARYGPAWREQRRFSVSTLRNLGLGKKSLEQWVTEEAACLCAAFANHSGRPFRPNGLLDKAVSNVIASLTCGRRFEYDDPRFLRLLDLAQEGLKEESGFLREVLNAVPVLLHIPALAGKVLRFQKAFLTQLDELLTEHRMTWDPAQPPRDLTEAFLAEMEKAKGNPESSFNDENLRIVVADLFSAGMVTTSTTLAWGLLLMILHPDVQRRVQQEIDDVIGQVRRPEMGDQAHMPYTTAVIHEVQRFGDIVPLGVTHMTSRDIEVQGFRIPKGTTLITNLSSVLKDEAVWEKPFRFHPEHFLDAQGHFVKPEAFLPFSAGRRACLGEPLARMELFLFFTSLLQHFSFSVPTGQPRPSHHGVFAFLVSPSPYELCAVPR

Cytochrome P450 3A4, sequence (P08684 whole entry): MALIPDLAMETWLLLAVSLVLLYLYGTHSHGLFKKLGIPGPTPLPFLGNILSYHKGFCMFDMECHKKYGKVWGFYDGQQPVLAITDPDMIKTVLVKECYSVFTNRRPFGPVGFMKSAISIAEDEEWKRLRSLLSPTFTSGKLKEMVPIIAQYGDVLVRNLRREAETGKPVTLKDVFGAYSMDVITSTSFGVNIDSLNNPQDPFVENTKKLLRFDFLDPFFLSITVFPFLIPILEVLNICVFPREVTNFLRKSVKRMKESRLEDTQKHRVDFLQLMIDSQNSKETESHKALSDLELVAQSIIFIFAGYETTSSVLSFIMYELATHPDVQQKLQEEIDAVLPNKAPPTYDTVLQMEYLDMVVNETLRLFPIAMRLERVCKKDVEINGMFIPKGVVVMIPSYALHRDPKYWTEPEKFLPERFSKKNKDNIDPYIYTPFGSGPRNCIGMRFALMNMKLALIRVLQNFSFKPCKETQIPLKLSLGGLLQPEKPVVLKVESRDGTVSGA

O=C(CCCc1ccccc1)OCC(COC(=O)CCCc1ccccc1)OC(=O)CCCc1ccccc1 [RAVICTI, benzenebutanoic acid, 1′,1″-(1,2,3-propanetriyl) ester]
% Inhibition (CYP3A4/5; Midazolam 1′-hydroxylase, pre-incubation time 0 min): 19%
% Inhibition (CYP3A4/5; Midazolam 1′-hydroxylase, pre-incubation time 30 min): 24%
% Inhibition (CYP3A4/5; Testosterone 6β-hydroxylase, pre-incubation time 0 min): 15%
% Inhibition (CYP3A4/5; Testosterone 6β-hydroxylase, pre-incubation time 30 min): 6%
drug-drug interaction by statistical analysis of Cmax, AUC0-t and AUC0-∞ (Cytochrome P450 3A4; RAVICTI metabolites with midazolam and 1′-OH-midazolam, 90% CIs outside 80 to […]): significant drug-drug interaction
effect on CYP3A4 enzyme in vivo (conclusion) (Cytochrome P450 3A4; steady-state RAVICTI, healthy subjects): weak inducer
% Inhibition (CYP2D6; pre-incubation time 0 min): 1%
% Inhibition (CYP2D6; pre-incubation time 30 min): 4%
